Numbers after ± are expanded uncertainties.
Columns and labels:
[1] = Molar enthalpy of transition or fusion
[2] = Crystal 2, Adiabatic calorimetry
[3] = Crystal 3, Adiabatic calorimetry
[4] = Crystal 4, Adiabatic calorimetry

BrC12CC3CC(CC(C3)C1)C2 [1-bromotricyclo[3.3.1.1(3,7)]decane]
Triple point temperature (Crystal 1, DTA): 391.8 ± 0.4 K
Triple point temperature [2]: 309.9 ± 0.1 K
Triple point temperature (Crystal 2, DTA): 309.8 ± 0.4 K
Triple point temperature [3]: 282.2 ± 0.1 K
Triple point temperature [4]: 31 ± 0.1 K
Molar enthalpy of transition or fusion ([1]; Crystal 1, DSC): 0.949 ± 0.0502 kcal/mol
Molar enthalpy of transition or fusion [1, 2]: 1.77 ± 0.0598 kcal/mol
Molar enthalpy of transition or fusion ([1]; Crystal 2, DSC): 1.79 ± 0.0693 kcal/mol
Molar enthalpy of transition or fusion [1, 3]: 0.3315 ± 0.00239 kcal/mol
Molar enthalpy of transition or fusion [1, 4]: 0.000344 ± 0.000621 kcal/mol

— the NIST ThermoML archive (doi:10.1016/j.jct.2004.10.005)
